From PMC10033419, “Blocking NS3–NS4B interaction inhibits dengue virus in non-human primates” (Nature, 2023)
Where “and” joins values, the source holds several entries; their conditions need not be identical. Equal entries are not always repeated.

Columns and labels:
Assay type in all cases: in vivo, AG129 mice
[1] = tested on: DENV-2 RL strain; experiment: Delayed-treatment study (therapeutic setting); conditions: JNJ-1802 30 mg/kg, start treatment day 5 p.i.
[2] = tested on: DENV-1/West Pac; experiment: Viraemia/survival study; conditions: for Viral RNA copies/mL [Log10]: Fig. 2i Viraemia DENV-1, BID, individual animals 1-5, LOD is 1.7
Description: (§1) The UTMB is an Association for the Assessment and Accreditation of Laboratory and Care (AAALAC) International accredited facility. All of the procedures were reviewed and approved by the UTMB Institutional Animal Care and Use Committee. […] Male and female AG129 mice (n = 10 per group; aged 6–8 weeks) were housed at a maximum of 5 mice per cage in individually ventilated cages with food and water provided ad libitum. Allocation to experimental groups was performed randomly. […] Approximately 1 h after the first treatment, all of the animals were challenged by i.p. injection with 10^7 PFU DENV-1/West Pac, DENV-3/C0360/94 or DENV-4/703/4. Pretreatment with anti-flavivirus antibody 4G2 to increase disease severity by induction of ADE was not required as infection with DENV-1/West Pac, DENV-3/C0360/94 or DENV-4/703/4 in our models leads to severe disease (requiring euthanasia after >20% loss of body weight). Each treatment group was subdivided into two smaller groups (groups A and B; n = 5 each). Blood was collected on day 3 after infection from group A to measure viral RNA; samples were collected by retro-orbital bleed on day 3 after infection around 30 min before the morning treatment. In parallel, animals (groups A and B) were followed for lethality throughout the experiment. Viral RNA isolation from plasma and RT–qPCR analysis was performed using the methods described previously.
(§2) For the viral kinetics studies and the delayed-treatment studies, a batch approach was applied to calculate the viral load AUC using the PΚ R package. This package estimates a mean AUC value for settings in which the animals are measured at varying timepoints within a treatment group. […] The AUC was calculated using the LOD (2.6 log10 copies per ml) as the lowest limit. […] In the delayed-treatment studies, the total viral load AUC for each of the compound-treated groups was calculated and compared with that of the vehicle-treated group. […] P values were adjusted using the Bonferroni multiple-comparison correction method. Note that P values lower than 0.0001 were rounded to 0.0001. For survival studies of DENV-1-, DENV-3- or DENV-4-infected mice, Fisher’s exact tests were used on day 6. P values were adjusted using the Bonferroni multiple-comparison correction method.

[3] = tested on: DENV-3/C0360/94; experiment: Viraemia/survival study; conditions: for Viral RNA copies/mL [Log10]: Fig. 2j Viraemia DENV-3, BID, individual animals 1-5, LOD is 1.7
Description: as §1, §2

[4] = tested on: DENV-4/703/4; experiment: Viraemia/survival study; conditions: for Viral RNA copies/mL [Log10]: Fig. 2k Viraemia DENV-4, BID, individual animals 1-5, LOD is 1.7
Description: as §1, §2

[5] = blood day 12, individual mice, 30 mg/kg
[6] = 60 or 6 mg per kg per day b.i.d.
[7] = 60 or 6 mg per kg per day b.i.d., vehicle 0%

COc1cc(N[C@H](C(=O)c2c[nH]c3ccc(OC(F)(F)F)cc23)c2ccc(Cl)cc2OC)cc(S(C)(=O)=O)c1 [JNJ-1802]
Viral (load), log10 of the column before (head empty) [1, 5]: 3.1169 and 4.0709 | Viral (load; head cut off) [1, 5]: 1.31E+03 and 1.18E+04 | Viral (load), log10 of the column before (head empty) ([1]; blood day 14, individual mice): 3.1169 | Viral (load; head cut off) ([1]; blood day 14, individual mice): 1.31E+03 | viral RNA load day 3 vs vehicle [2, 6]: significantly reduced | survival until day 6 ([2]; 60 or 6 mg per kg per day b.i.d., vehicle 20%): 100% | Survival [%] ([2]; DENV-1, 6 mg/kg/day BID, day 0 post-infection): 100% | Survival [%] ([2]; DENV-1, 6 mg/kg/day BID, day 1 post-infection): 100% | Survival [%] ([2]; DENV-1, 6 mg/kg/day BID, day 2 post-infection): 100% | Survival [%] ([2]; DENV-1, 6 mg/kg/day BID, day 3 post-infection): 100% | Survival [%] ([2]; DENV-1, 6 mg/kg/day BID, day 4 post-infection): 100% | Survival [%] ([2]; DENV-1, 6 mg/kg/day BID, day 5 post-infection): 100% | Survival [%] ([2]; DENV-1, 6 mg/kg/day BID, day 6 post-infection): 100% | Survival [%] ([2]; DENV-1, 60 mg/kg/day BID, day 0 post-infection): 100% | Survival [%] ([2]; DENV-1, 60 mg/kg/day BID, day 1 post-infection): 100% | Survival [%] ([2]; DENV-1, 60 mg/kg/day BID, day 2 post-infection): 100% | Survival [%] ([2]; DENV-1, 60 mg/kg/day BID, day 3 post-infection): 100% | Survival [%] ([2]; DENV-1, 60 mg/kg/day BID, day 4 post-infection): 100% | Survival [%] ([2]; DENV-1, 60 mg/kg/day BID, day 5 post-infection): 100% | Survival [%] ([2]; DENV-1, 60 mg/kg/day BID, day 6 post-infection): 100% | Viral RNA copies/mL [Log10] ([2]; 6 mg/kg/day): 6.011 copies/mL [Log10] and 6.0187 copies/mL [Log10] and 7.037 copies/mL [Log10] and 6.709 copies/mL [Log10] and 6.244 copies/mL [Log10] | Viral RNA copies/mL [Log10] ([2]; 60 mg/kg/day): 4.624 copies/mL [Log10] and 4.061 copies/mL [Log10] and 4.479 copies/mL [Log10] and 4.465 copies/mL [Log10] and 4.103 copies/mL [Log10] | viral RNA load day 3 vs vehicle [3, 6]: significantly reduced | survival until day 6 [3, 7]: 100% | Survival [%] ([3]; DENV-3, 6 mg/kg/day BID, day 0 post-infection): 100% | Survival [%] ([3]; DENV-3, 6 mg/kg/day BID, day 1 post-infection): 100% | Survival [%] ([3]; DENV-3, 6 mg/kg/day BID, day 2 post-infection): 100% | Survival [%] ([3]; DENV-3, 6 mg/kg/day BID, day 3 post-infection): 100% | Survival [%] ([3]; DENV-3, 6 mg/kg/day BID, day 4 post-infection): 100% | Survival [%] ([3]; DENV-3, 6 mg/kg/day BID, day 5 post-infection): 100% | Survival [%] ([3]; DENV-3, 6 mg/kg/day BID, day 6 post-infection): 100% | Survival [%] ([3]; DENV-3, 60 mg/kg/day BID, day 0 post-infection): 100% | Survival [%] ([3]; DENV-3, 60 mg/kg/day BID, day 1 post-infection): 100% | Survival [%] ([3]; DENV-3, 60 mg/kg/day BID, day 2 post-infection): 100% | Survival [%] ([3]; DENV-3, 60 mg/kg/day BID, day 3 post-infection): 100% | Survival [%] ([3]; DENV-3, 60 mg/kg/day BID, day 4 post-infection): 100% | Survival [%] ([3]; DENV-3, 60 mg/kg/day BID, day 5 post-infection): 100% | Survival [%] ([3]; DENV-3, 60 mg/kg/day BID, day 6 post-infection): 100% | Viral RNA copies/mL [Log10] ([3]; 6 mg/kg/day): 1.7 copies/mL [Log10] and 2.037 copies/mL [Log10] and 2.373 copies/mL [Log10] | Viral RNA copies/mL [Log10] ([3]; 60 mg/kg/day): 1.7 copies/mL [Log10] | viral RNA load day 3 vs vehicle [4, 6]: significantly reduced | survival until day 6 [4, 7]: 100% | Survival [%] ([4]; DENV-4, 6 mg/kg/day BID, day 0 post-infection): 100% | Survival [%] ([4]; DENV-4, 6 mg/kg/day BID, day 1 post-infection): 100% | Survival [%] ([4]; DENV-4, 6 mg/kg/day BID, day 2 post-infection): 100% | Survival [%] ([4]; DENV-4, 6 mg/kg/day BID, day 3 post-infection): 100% | Survival [%] ([4]; DENV-4, 6 mg/kg/day BID, day 4 post-infection): 100% | Survival [%] ([4]; DENV-4, 6 mg/kg/day BID, day 5 post-infection): 100% | Survival [%] ([4]; DENV-4, 6 mg/kg/day BID, day 6 post-infection): 100% | Survival [%] ([4]; DENV-4, 60 mg/kg/day BID, day 0 post-infection): 100% | Survival [%] ([4]; DENV-4, 60 mg/kg/day BID, day 1 post-infection): 100% | Survival [%] ([4]; DENV-4, 60 mg/kg/day BID, day 2 post-infection): 100% | Survival [%] ([4]; DENV-4, 60 mg/kg/day BID, day 3 post-infection): 100% | Survival [%] ([4]; DENV-4, 60 mg/kg/day BID, day 4 post-infection): 100% | Survival [%] ([4]; DENV-4, 60 mg/kg/day BID, day 5 post-infection): 100% | Survival [%] ([4]; DENV-4, 60 mg/kg/day BID, day 6 post-infection): 100% | Viral RNA copies/mL [Log10] ([4]; 6 mg/kg/day): 1.7 copies/mL [Log10] and 4.048 copies/mL [Log10] and 3.88 copies/mL [Log10] | Viral RNA copies/mL [Log10] ([4]; 60 mg/kg/day): 1.7 copies/mL [Log10]
